Test results as given in patent EP0074599A1, “5,6-cis-Carbapenem derivatives, their production and use” (Takeda Chemical Industries, Ltd., priority 1981, dated 1983).

How the values were obtained:
Assay in all cases: Minimal Inhibitory Concentration (MIC), agar dilution method
Type in all cases: cell-based
Design in all cases: unit not given here
E. cloacae IFO 12937 = settings: Test Microorganism (9) E. cloacae IFO 12937; Trypticase soy agar, 37°C for 18 hours
Description: (§1) Minimal Inhibitory Concentration (MIC)
(§2) The Minimal Inhibitory Concentrations of the tested compounds were determined according to the agar dilution method. Namely, 1.0 ml each of aqueous solution of the tested compounds diluted by serial dilutions was poured into test petri dishes, subsequently 9.0 ml each of Trypticase soy agar was poured into the dishes and mixed. On each of the mixed agar plates, one loopful of bacterial suspension (about 10^8 CFU/ml) of test microorganism was streaked.
(§3) After the incubation at 37°C for 18 hours, the lowest concentration of the tested compounds in the medium which caused apparently complete inhibition of growth of the test microorganism was taken to be minimal inhibitory concentration.
(§4) • (1) S. aureus FDA 209P • (2) S. aureus 308 A-1 • (3) S. aureus 1840 • (4) E. coli NIHJ JC-2 • (5) E. coli 0-111 • (6) E. coli T-7 • (7) C. freundii IFO 12681 • (8) K. pneumoniae DT • (9) E. cloacae IFO 12937 • (10) S. marcescens IFO 12648 • (11) P. vulgaris IFO 3988 • (12) P.-mirabilis IFO 3849 • (13) P. morganii IFO 3168 • (14) P. aeruginosa IFO 3455 • (15) P. aeruginosa U 31 • (16) A. calcoaceticus IFO 13006

P. morganii IFO 3168 = settings: Test Microorganism (13) P. morganii IFO 3168; Trypticase soy agar, 37°C for 18 hours
Description: as §1, §2, §3, §4

K. pneumoniae DT = settings: Test Microorganism (8) K. pneumoniae DT; Trypticase soy agar, 37°C for 18 hours
Description: as §1, §2, §3, §4

E. coli 0-111 = settings: Test Microorganism (5) E. coli 0-111; Trypticase soy agar, 37°C for 18 hours
Description: as §1, §2, §3, §4

P.-mirabilis IFO 3849 = settings: Test Microorganism (12) P.-mirabilis IFO 3849; Trypticase soy agar, 37°C for 18 hours
Description: as §1, §2, §3, §4

[1] = system: A. calcoaceticus IFO 13006; settings: Test Microorganism (16) A. calcoaceticus IFO 13006; Trypticase soy agar, 37°C for 18 hours
Description: as §1, §2, §3, §4

P. aeruginosa IFO 3455 = settings: Test Microorganism (14) P. aeruginosa IFO 3455; Trypticase soy agar, 37°C for 18 hours
Description: as §1, §2, §3, §4

S. marcescens IFO 12648 = settings: Test Microorganism (10) S. marcescens IFO 12648; Trypticase soy agar, 37°C for 18 hours
Description: as §1, §2, §3, §4

C. freundii IFO 12681 = settings: Test Microorganism (7) C. freundii IFO 12681; Trypticase soy agar, 37°C for 18 hours
Description: as §1, §2, §3, §4

S. aureus 1840 = settings: Test Microorganism (3) S. aureus 1840; Trypticase soy agar, 37°C for 18 hours
Description: as §1, §2, §3, §4

E. coli NIHJ JC-2 = settings: Test Microorganism (4) E. coli NIHJ JC-2; Trypticase soy agar, 37°C for 18 hours
Description: as §1, §2, §3, §4

P. aeruginosa U 31 = settings: Test Microorganism (15) P. aeruginosa U 31; Trypticase soy agar, 37°C for 18 hours
Description: as §1, §2, §3, §4

S. aureus FDA 209P = settings: Test Microorganism (1) S. aureus FDA 209P; Trypticase soy agar, 37°C for 18 hours
Description: as §1, §2, §3, §4

S. aureus 308 A-1 = settings: Test Microorganism (2) S. aureus 308 A-1; Trypticase soy agar, 37°C for 18 hours
Description: as §1, §2, §3, §4

P. vulgaris IFO 3988 = settings: Test Microorganism (11) P. vulgaris IFO 3988; Trypticase soy agar, 37°C for 18 hours
Description: as §1, §2, §3, §4

E. coli T-7 = settings: Test Microorganism (6) E. coli T-7; Trypticase soy agar, 37°C for 18 hours
Description: as §1, §2, §3, §4

| SMILES | Minimal Inhibitory Concentration (MIC) (E. cloacae IFO 12937) | Minimal Inhibitory Concentration (MIC) (P. morganii IFO 3168) | Minimal Inhibitory Concentration (MIC) (K. pneumoniae DT) | Minimal Inhibitory Concentration (MIC) (E. coli 0-111) | Minimal Inhibitory Concentration (MIC) (P.-mirabilis IFO 3849) | Minimal Inhibitory Concentration (MIC) [1] | Minimal Inhibitory Concentration (MIC) (P. aeruginosa IFO 3455) | Minimal Inhibitory Concentration (MIC) (S. marcescens IFO 12648) | Minimal Inhibitory Concentration (MIC) (C. freundii IFO 12681) | Minimal Inhibitory Concentration (MIC) (S. aureus 1840) | Minimal Inhibitory Concentration (MIC) (E. coli NIHJ JC-2) | Minimal Inhibitory Concentration (MIC) (P. aeruginosa U 31) | Minimal Inhibitory Concentration (MIC) (S. aureus FDA 209P) | Minimal Inhibitory Concentration (MIC) (S. aureus 308 A-1) | Minimal Inhibitory Concentration (MIC) (P. vulgaris IFO 3988) | Minimal Inhibitory Concentration (MIC) (E. coli T-7) |
| --- | --- | --- | --- | --- | --- | --- | --- | --- | --- | --- | --- | --- | --- | --- | --- | --- |
| CC(C)(O)[C@@H]1C(=O)N2C(C(=O)O)=C(SCCN)C[C@H]12 [Example 2] | 12.5 | 50 | 12.5 | 0.39 | 50 | 3.13 | 6.25 | 12.5 | 3.13 | 1.56 | 1.56 | 25 | 0.39 | 0.78 | 50 | 1.56 |
| CC(C)(O)[C@@H]1C(=O)N2C(C(=O)O)=C(Sc3cccnn3)C[C@H]12 [Example 20, Sodium 5,6-cis-3-(3-pyridazinylthio)-6-(l-hydroxy-l-methylethyl)-7-oxo-1-azabicyclo[3.2.0]hept-2-ene-2-carboxylate] | 1.56 | 3.13 | 0.78 | 0.2 | 3.13 | 12.5 | 50 | 1.56 | 0.78 | 0.78 | 0.78 | >100 | 0.39 | 0.39 | 3.13 | 3.13 |
| CN(C)CCSC1=C(C(=O)O)N2C(=O)[C@@H](C(C)(C)O)[C@H]2C1 [Example 26, 5,6-cis-3-[2-(N,N-Dimethylaminoethyl)thio]-6-(1-hydroxy-1-methylethyl)-7-oxo-1-azabicyclo[3.2.0]hept-2-ene-2-carboxylic acid] | 6.25 | 50 | 25 | 0.39 | 50 | 12.5 | 25 | 6.25 | 3.13 | 0.78 | 0.78 | 50 | 0.39 | 0.39 | 50 | 0.78 |
| CC(C)(O)[C@@H]1C(=O)N2C(C(=O)O)=C(SCCCN)C[C@H]12 [Example 33, 5,6-cis-3-(3-Aminopropylthio)-6-(l-hydroxy-l-methylethyl)-7-oxo-l-azabicyclo[3.2.0]hept-2-ene-2-carboxylic acid] | 6.25 | 50 | 6.25 | 0.39 | 50 | 3.13 | 12.5 | 6.25 | 3.13 | 0.78 | 0.39 | 50 | 0.78 | 0.78 | 50 | 0.78 |
| CC(C)(O)[C@@H]1C(=O)N2C(C(=O)O)=C(SCCNC=N)C[C@H]12 [Example 46, 5,6-cis-3-(2-formimidoylaminoethylthio)-6-(1-hydroxy-1-methylethyl)-7-oxo-l-azabicyclo[3.2.0]hept-2-ene-2-carboxylic acid] | 6.25 | 25 | 6.25 | 0.39 | 25 | 6.25 | 3.13 | 3.13 | 1.56 | 0.78 | 0.39 | 6.25 | 0.39 | 0.78 | 25 | 0.78 |
| CC(C)(O)[C@@H]1C(=O)N2C(C(=O)O)=C(SCCCNC=N)C[C@H]12 [Example 47, 5,6-cis-3-(3-formimidoylaminopropylthio)-6-(1-hydroxy-1-methylethyl)-7-oxo-1-azabicyclo[3.2.0]hept-2-ene-2-carboxylic - acid] | 6.25 | 25 | 6.25 | 0.39 | 25 | 6.25 | 3.13 | 3.13 | 1.56 | 0.78 | 0.39 | 12.5 | 0.39 | 0.39 | 25 | 0.78 |
| CC(C)(O)[C@@H]1C(=O)N2C(C(=O)O)=C(SCCN3CCCC3)C[C@H]12 [Example 49] | 12.5 | 50 | 6.25 | 0.39 | 50 | 12.5 | 12.5 | 6.25 | 3.13 | 0.78 | 0.78 | 50 | 0.2 | 0.39 | 100 | 0.78 |
| CC(C)(O)[C@@H]1C(=O)N2C(C(=O)O)=C(SCCN3CCCCC3)C[C@H]12 [Example 51, 5,6-cis-3-(2-Piperidinoethylthio)-6-(1-hydroxy-1-methylethyl)-7-oxo-1-azabicyclo[3.2.0]hept-2-ene-carboxylic acid] | 6.25 | 25 | 6.25 | 0.39 | 25 | 25 | 50 | 6.25 | 3.13 | 0.78 | 0.78 | >100 | 0.2 | 0.39 | 25 | 0.78 |
